For the experiment, the target named is α-glucosidase. In words: α-glucosidase inhibition (assay details and enzyme source not described). It counts as biochemical.

Structures are written as SMILES.

The IC50 is the point on the concentration scale where inhibition reaches its midpoint. Regarding `C=C(C)C1CC23C(=O)C4(C/C=C(\C)CCC=C(C)C)CC(CC2C1(C)C)C(C)(C)C(C(=O)c1ccccc1)(C4=O)C3=O` (stereo not shown) [Cowabenzophenone A], inhibition was half-maximal at 7.8 ± 0.5 µM (IC50).

These data come from paper PMC7723023, “Antimicrobial, anti-cancer, anti-filarial and anti-inflammatory activities of Cowabenzophenone A extracted from the endophytic fungus Aspergillus terreus isolated from a mangrove plant Bruguiera gymnorrhyza” (Mycology, 2019).
